We go through eight compounds from ChEMBL document CHEMBL1201862, “PubChem BioAssay data set” (2004).

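Method: 48-hour compound exposure of cells in 96-well plates, five concentrations, linear interpolation of endpoints. GI50 is the concentration that inhibits growth by half.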 Activity calls are given as the source filed them. No stated cut-off is given here; in the data, active = GI50 up to about 1.1 µM and inactive = higher. Some results are limits rather than exact numbers.

Some test systems named below: SN12C; RXF 393; K562; Malme-3M; MCF7; SW-620; OVCAR-3; SF-268; NCI-H522; CCRF-CEM; UO-31; CAKI-1; SF-295; SK-MEL-2; U-251; ACHN; HCT-15; SK-MEL-5; UACC-257; 786-0.
What all share (assay): NCI anticancer screen, dose series, 48 h

Turning to `COc1cc(N/N=C/C#N)cc(OC)c1OC`, the GI50 in the assay with SN12C was > 10 µM (inactive); in the assay on RXF 393, > 10 µM (inactive); with K562, 2.44 µM (inactive); in the assay on Malme-3M it was 7.55 µM (inactive); in the assay with MCF7, 5.87 µM (inactive); in the assay on SW-620, 8.28 µM (inactive). Besides, the GI50 was > 10 µM (inactive) in the assay with OVCAR-3; > 10 µM (inactive) with SF-268; 1.01 µM (active) with NCI-H522; 3.28 µM (inactive) in the assay on CCRF-CEM; > 10 µM (inactive) in the assay with UO-31; 4.07 µM (inactive) in the assay on CAKI-1. Further, the GI50 with SF-295 is > 10 µM (inactive); in the assay with SK-MEL-2 it was > 10 µM (inactive); in the assay on U-251, > 10 µM (inactive); in the assay on ACHN, 4.86 µM (inactive); with HCT-15, more than 10 µM; in the assay with SK-MEL-5, > 10 µM (inactive).

`C=C1C(=O)C[C@@]23CCC[C@@]12CC(O)C3` (some centres undefined): the GI50 was 16.9 µM (inactive) in the assay on SN12C; 13.7 µM (inactive) in the assay with RXF 393; 24.5 µM (inactive) in the assay with K562; 0.855 µM (active) in the assay on Malme-3M; 16.7 µM (inactive) in the assay on MCF7; 18.7 µM (inactive) in the assay on SW-620. Also, the GI50 in the assay on OVCAR-3 is 13.1 µM (inactive); in the assay with SF-268, 43.7 µM (inactive); in the assay with NCI-H522, 2.37 µM (inactive); in the assay with CCRF-CEM it was 10.3 µM (inactive); with UO-31, 37.6 µM (inactive); in the assay on CAKI-1, > 10 µM (inactive). Besides, the GI50 in the assay on SF-295 was 37.8 µM (inactive); with SK-MEL-2, 24.6 µM (inactive); with U-251 it was 40.3 µM (inactive); with UACC-257, 18.7 µM (inactive); with HCT-15, 13 µM; in the assay with SK-MEL-5 it was 10.5 µM (inactive).

On to `CCOC(=O)c1ccc(N[C@@H]2c3cc4c(cc3C(c3cc(OC)c(O)c(OC)c3)[C@H]3C(=O)OCC32)OCO4)cc1O` (some centres undefined), for which the GI50 with SN12C is 1.64 µM (inactive); in the assay on RXF 393, 1.88 µM (inactive); in the assay with K562 it was 0.78 µM (active); in the assay with Malme-3M, 0.757 µM (active); with MCF7, 0.723 µM (active); in the assay with SW-620 it was 0.942 µM (active). For the same compound, the GI50 in the assay with OVCAR-3 is 2.43 µM (inactive); with SF-268, 0.789 µM (active); in the assay with NCI-H522 it was 0.665 µM (active); with CCRF-CEM it was 0.211 µM (active); in the assay with UO-31 it was 0.34 µM (active); with CAKI-1 it was 0.331 µM (active). The GI50 in the assay with SF-295 was 0.498 µM (active); in the assay on SK-MEL-2, 0.809 µM (active); in the assay with U-251, 0.92 µM (active); with UACC-257, 2.91 µM (inactive); with HCT-15 it was 1.09 µM; in the assay on SK-MEL-5, 1.19 µM (inactive).

For the compound `[N-]=[N+]=CC(=O)OCC(N)C(=O)O` (centres undefined), the GI50 was 0.421 µM (active) in the assay with SN12C; 15.7 µM (inactive) in the assay with RXF 393; 0.286 µM (active) in the assay with K562; 54.8 µM (inactive) in the assay with Malme-3M; 0.217 µM (active) with MCF7; 0.437 µM (active) with SW-620. For the same compound, the GI50 in the assay on OVCAR-3 is 0.841 µM (active); with SF-268, 0.685 µM (active); in the assay on NCI-H522 it was 0.54 µM (active); in the assay with CCRF-CEM, 0.222 µM (active); in the assay with UO-31, 2.61 µM (inactive); with CAKI-1 it was 5.85 µM (inactive). The GI50 was 0.923 µM (active) in the assay on SF-295; 3.28 µM (inactive) in the assay with SK-MEL-2; 0.502 µM (active) with U-251; 95.9 µM (inactive) in the assay with UACC-257; 0.297 µM with HCT-15; 0.847 µM (active) in the assay on SK-MEL-5.

As to `Nc1ncnc2c1ncn2[C@@H]1O[C@H](COP(=O)(O)O)[C@@H](O)[C@@H]1O`, the GI50 in the assay with SN12C, in the assay on RXF 393, in the assay with K562, in the assay with Malme-3M, with MCF7 and in the assay on SW-620 was > 50 µM (inactive) throughout. Further, the GI50 with OVCAR-3, in the assay on SF-268, in the assay on NCI-H522, in the assay with CCRF-CEM, in the assay with UO-31 and with CAKI-1 was > 50 µM (inactive) throughout. Besides, the GI50 in the assay with SF-295 was > 50 µM (inactive); with SK-MEL-2, > 50 µM (inactive); in the assay on U-251, > 50 µM (inactive); with UACC-257 it was > 50 µM (inactive); in the assay with HCT-15 it was more than 50 µM; with SK-MEL-5, > 50 µM (inactive).

In the case of `O=NN(CCCl)C(=O)NC1CCSc2ccccc21` (centres undefined), the GI50 in the assay on SN12C is > 100 µM (inactive); with RXF 393, > 100 µM (inactive); with K562 it was > 62.4 µM (inactive); in the assay on Malme-3M, > 100 µM (inactive); in the assay with MCF7, > 100 µM (inactive); in the assay with SW-620 it was > 100 µM (inactive). Moreover, the GI50 was > 100 µM (inactive) with OVCAR-3; 20.9 µM (inactive) in the assay with SF-268; > 100 µM (inactive) in the assay on NCI-H522; 10.3 µM (inactive) in the assay with CCRF-CEM; > 91.2 µM (inactive) in the assay with UO-31; > 100 µM (inactive) in the assay on CAKI-1. For the same compound, the GI50 is 57.8 µM (inactive) in the assay with SF-295; > 100 µM (inactive) in the assay with SK-MEL-2; 58.2 µM (inactive) in the assay on U-251; > 100 µM (inactive) with UACC-257; more than 100 µM in the assay with HCT-15; > 100 µM (inactive) with SK-MEL-5.

For the compound `Cc1ccc(-c2c(C#N)c(-c3ccc([N+](=O)[O-])cc3)c(C#N)c(=O)n2NS(=O)(=O)c2ccccc2)cc1`, the GI50 in the assay with SN12C is 96.2 µM (inactive); in the assay on RXF 393 it was 29.4 µM (inactive); with K562, 39.3 µM (inactive); with Malme-3M, 29.9 µM (inactive); with MCF7, 19.2 µM (inactive); in the assay on 786-0 it was 45.3 µM (inactive). Also, the GI50 was 38 µM (inactive) with SW-620; 49 µM (inactive) with SF-268; 28.6 µM (inactive) in the assay with NCI-H522; 19 µM (inactive) in the assay with CCRF-CEM; 97.3 µM (inactive) in the assay on CAKI-1; 27.8 µM (inactive) with SF-295. The GI50 with SK-MEL-2 was 44 µM (inactive); in the assay on U-251 it was 40.3 µM (inactive); in the assay with UACC-257, 88.3 µM (inactive); in the assay with ACHN, 39.2 µM (inactive); with HCT-15, 36 µM; with SK-MEL-5, 12.1 µM (inactive).

As to `Cc1c2ccnc(-c3ccccc3)c2cc2c1[nH]c1ccccc12`, the GI50 in the assay on SN12C is 2.99 µM (inactive); with RXF 393, 2.42 µM (inactive); in the assay on K562 it was 1.58 µM (inactive); with Malme-3M it was 3.37 µM (inactive); in the assay with MCF7, 2.13 µM (inactive); in the assay on SW-620 it was 2.48 µM (inactive). In addition, the GI50 is 3.4 µM (inactive) in the assay with OVCAR-3; 4.31 µM (inactive) in the assay with SF-268; 4.52 µM (inactive) in the assay on NCI-H522; 3.26 µM (inactive) in the assay with CCRF-CEM; 1.33 µM (inactive) in the assay with UO-31; 0.655 µM (active) in the assay on CAKI-1. Also, the GI50 in the assay on SF-295 was 0.879 µM (active); in the assay on SK-MEL-2 it was 2.62 µM (inactive); in the assay with U-251, 0.873 µM (active); in the assay on UACC-257, 2.7 µM (inactive); in the assay with HCT-15, 0.773 µM; with SK-MEL-5, 0.614 µM (active).
